These results are taken from paper PMC7899671 (eLife, 2021).

Test [1] has as its target T1, α1L9'T/K278Aβ2γ2L receptors (L9'T/K278A) (Rattus norvegicus, UniProt P18508+P62813+P63138, INS375LLRMFSFK/K305A/L290T).
T1 construct: expressed in transfected cells; host or cells: Xenopus laevis oocytes injected with mRNA (α:β:γ 1:1:10)
In kind it is cell-based. The source says: (§1) We use the gain of function mutation α1L9'T that confers spontaneous channel gating in the absence of agonist that can be further modulated by BZDs ([Scheller and Forman, 2002]; [Chang and Weiss, 1999]). The primary purpose for this mutation is to enable macroscopic current responses to report on pore gating by a BZD in the absence of agonist. […] We restricted the scan primarily to the flexible loop between helical regions associated with M2 and M3 from α1L276-T283 (Figure 1; Figure 1—figure supplement 1). Two of these positions, α1A280 and α1A282, are natively alanine and were not mutated. Briefly, Xenopus laevis oocytes were co-injected with mRNA for α, β, and γ subunits in a 1:1:10 ratio, and current responses to microfluidic application of ligands were recorded in two-electrode voltage clamp. […] Current block by the pore blocker PTX was used to assess the amount of spontaneous activity and to correct for drift or rundown over the course of the experiment (see Figure 2—figure supplement 1).
(§2) BZD positive modulators alone evoke channel opening with extremely low probability ([Campo-Soria et al., 2006]), thus necessitating coapplication with an agonist to obtain robust currents from wild-type receptors ([Germann et al., 2019]). However, dissecting the effects of BZDs on either agonist binding or channel gating is severely challenged in the presence of an agonist because the two processes are intimately coupled ([Colquhoun, 1998]).
(§3) DNA for wild-type GABAAR rat α1, β2, and γ2L subunits were a gift from Dr. Cynthia Czajkowski. Single alanine substitutions were introduced throughout the α1M2–M3 linker from L276-T283 in addition to the gain of function α1L9'T pore mutation (rat α1L263T) (QuikChange II, […]). Mutations V279D and V279W were introduced similarly. Each construct was verified by forward and reverse sequencing of the entire gene. mRNA for each construct was generated (mMessage mMachine T7, Ambion) for expression in X. laevis oocytes (EcoCyte Bioscience, Austin, TX). Oocytes were injected with 27–54 ng of total mRNA for α, β, and γ subunits in a 1:1:10 ratio ([Boileau et al., 2002]) (Nanoject, Drummond Scientific). Oocytes were incubated in ND96 (in mM: 96 NaCl, 2 KCl, 1 MgCl2, 1.8 CaCl2, 5 HEPES, pH 7.2) with […] gentamicin at 18°C.
(§4) Currents from expressed channels 1–3 days post-injection were recorded in two-electrode voltage clamp (Dagan TEV-200, HEKA ITC and Patchmaster software). […] PTX was diluted from a 1 M stock solution in DMSO. […] Recorded currents were analyzed with custom scripts in MATLAB (Mathworks). Recordings of concentration–response relationships were bookended by pulses of PTX to correct for any drift or rundown during the experiment. Briefly, currents were baseline subtracted to correct for drift and then scaled by a linear fit to the peak of each PTX response to correct for rundown (Figure 2—figure supplement 1).

Test [2] deals with T2, α1L9'T/L276Aβ2γ2L GABAA receptor (L9'T/L276A) (Rattus norvegicus, UniProt P18508+P62813+P63138, INS375LLRMFSFK/L290T/L303A).
T2 construct: expressed in transfected cells; host or cells: Xenopus laevis oocytes injected with mRNA (α:β:γ 1:1:10)
T2 sequence (P62813 28-455 L290T/L303A): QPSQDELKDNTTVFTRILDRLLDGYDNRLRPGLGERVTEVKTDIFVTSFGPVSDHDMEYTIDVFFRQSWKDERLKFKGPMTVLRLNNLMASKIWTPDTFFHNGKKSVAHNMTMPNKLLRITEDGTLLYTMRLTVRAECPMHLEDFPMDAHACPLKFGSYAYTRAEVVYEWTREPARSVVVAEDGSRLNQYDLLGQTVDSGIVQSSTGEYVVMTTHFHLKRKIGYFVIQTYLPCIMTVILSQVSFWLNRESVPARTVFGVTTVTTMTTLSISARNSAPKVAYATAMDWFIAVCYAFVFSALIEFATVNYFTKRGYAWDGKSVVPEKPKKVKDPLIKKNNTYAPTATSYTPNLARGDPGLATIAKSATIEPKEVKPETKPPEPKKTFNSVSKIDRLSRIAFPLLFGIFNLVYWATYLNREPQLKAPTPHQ
T2 sequence (P63138 25-474 limits assumed, stated change not applied): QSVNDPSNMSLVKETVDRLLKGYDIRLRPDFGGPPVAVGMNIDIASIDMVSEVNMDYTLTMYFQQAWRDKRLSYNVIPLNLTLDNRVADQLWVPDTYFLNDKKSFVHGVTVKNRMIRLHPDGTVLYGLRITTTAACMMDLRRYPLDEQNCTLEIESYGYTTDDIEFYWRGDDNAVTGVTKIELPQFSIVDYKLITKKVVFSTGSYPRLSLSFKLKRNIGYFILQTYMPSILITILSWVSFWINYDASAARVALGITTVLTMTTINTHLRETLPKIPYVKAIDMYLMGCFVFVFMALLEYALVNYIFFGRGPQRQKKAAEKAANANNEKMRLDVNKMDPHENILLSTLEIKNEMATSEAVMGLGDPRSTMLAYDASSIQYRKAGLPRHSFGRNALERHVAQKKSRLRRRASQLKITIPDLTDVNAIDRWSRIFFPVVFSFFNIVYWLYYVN
T2 sequence (P18508 with tags, fused parts or gaps INS375LLRMFSFK): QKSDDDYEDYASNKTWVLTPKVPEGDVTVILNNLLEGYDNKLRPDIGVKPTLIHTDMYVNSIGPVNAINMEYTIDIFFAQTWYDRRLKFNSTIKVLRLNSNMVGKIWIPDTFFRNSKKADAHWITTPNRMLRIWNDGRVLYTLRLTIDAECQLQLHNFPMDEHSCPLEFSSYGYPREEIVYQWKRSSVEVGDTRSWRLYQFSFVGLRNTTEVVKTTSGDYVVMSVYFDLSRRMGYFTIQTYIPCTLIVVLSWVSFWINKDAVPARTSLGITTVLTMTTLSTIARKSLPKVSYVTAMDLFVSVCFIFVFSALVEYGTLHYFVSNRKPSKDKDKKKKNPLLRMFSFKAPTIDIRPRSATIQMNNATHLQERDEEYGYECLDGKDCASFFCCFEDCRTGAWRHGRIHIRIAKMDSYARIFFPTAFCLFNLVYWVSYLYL
In kind it is cell-based.
From the text: as §1, §2, §3, §4

In test [3] the target is T3, α1L9'T/P277Aβ2γ2L GABAA receptor (L9'T/P277A) (Rattus norvegicus, UniProt P18508+P62813+P63138, INS375LLRMFSFK/L290T/P304A).
T3 construct: expressed in transfected cells; host or cells: Xenopus laevis oocytes injected with mRNA (α:β:γ 1:1:10)
T3 sequence (P62813 28-455 L290T/P304A): as the sequence (P62813 28-455 L290T/L303A) above, with A276L, P277A counted along it
T3 sequence (P63138 25-474 limits assumed, stated change not applied): as the sequence (P63138 25-474 limits assumed, stated change not applied) above
T3 sequence (P18508 with tags, fused parts or gaps INS375LLRMFSFK): as the sequence (P18508 with tags, fused parts or gaps INS375LLRMFSFK) above
Type of test: cell-based.
From the text: as §1, §2, §3, §4

Test [4] has as its target T4, α1L9'T/T283Aβ2γ2L GABAA receptor (L9'T/T283A) (Rattus norvegicus, UniProt P18508+P62813+P63138, INS375LLRMFSFK/L290T/T310A).
T4 construct: expressed in transfected cells; host or cells: Xenopus laevis oocytes injected with mRNA (α:β:γ 1:1:10)
In kind it is cell-based.
From the text: as §1, §2, §3, §4

Test [5] concerns the target T5, α1L9'T/V279Aβ2γ2L receptors (L9'T/V279A) (Rattus norvegicus, UniProt P18508+P62813+P63138, INS375LLRMFSFK/L290T/V306A).
T5 construct: expressed in transfected cells; host or cells: Xenopus laevis oocytes injected with mRNA (α:β:γ 1:1:10)
Type of test: cell-based.
From the text: as §1, §2, §3, §4

For test [6], the target named is T6, α1L9'T/Y281Aβ2γ2L GABAA receptor (L9'T/Y281A) (Rattus norvegicus, UniProt P18508+P62813+P63138, INS375LLRMFSFK/L290T/Y308A).
T6 construct: expressed in transfected cells; host or cells: Xenopus laevis oocytes injected with mRNA (α:β:γ 1:1:10)
T6 sequence (P62813 28-455 L290T/Y308A): as the sequence (P62813 28-455 L290T/L303A) above, with A276L, Y281A counted along it
T6 sequence (P63138 25-474 limits assumed, stated change not applied): as the sequence (P63138 25-474 limits assumed, stated change not applied) above
T6 sequence (P18508 with tags, fused parts or gaps INS375LLRMFSFK): as the sequence (P18508 with tags, fused parts or gaps INS375LLRMFSFK) above
In kind it is cell-based.
From the text: as §1, §2, §3, §4

Test [7] concerns the target T7, α1L9'Tβ2γ2L GABAA receptor (L9'T) (Rattus norvegicus, UniProt P18508+P62813+P63138, INS375LLRMFSFK/L290T).
T7 construct: expressed in transfected cells; host or cells: Xenopus laevis oocytes injected with mRNA (α:β:γ 1:1:10)
In kind it is cell-based.
From the text: as §1, §2, §3, §4

Test [8] concerns the target T8, α1L9'T/V279Dβ2γ2L GABAA receptor (L9'T/V279D) (Rattus norvegicus, UniProt P18508+P62813+P63138, INS375LLRMFSFK/L290T/V306D).
T8 construct: expressed in transfected cells; host or cells: Xenopus laevis oocytes injected with mRNA (α:β:γ 1:1:10)
Type of test: cell-based.
From the text: (§5) The M2–M3 linker has both high sequence and structural similarity in pLGICs. The valine at position 279 in the GABAAR α1 subunit is located near the center of the linker and is nearly always an aliphatic residue in different GABAAR subunits as well as in subunits of other pLGICs, with the exception of AChR, where it is a threonine. Even where sequences differ, structural models of the M2–M3 linker for multiple pLGICs are highly similar.
as §3, §4
(§6) where I is the peak current response, X is ligand concentration, EC50 is the concentration eliciting a half-maximal response, and n is the Hill slope.

The target in test [9] is T9, α1L9'T/V279Wβ2γ2L GABAA receptor (L9'T/V279W) (Rattus norvegicus, UniProt P18508+P62813+P63138, INS375LLRMFSFK/L290T/V306W).
T9 construct: expressed in transfected cells; host or cells: Xenopus laevis oocytes injected with mRNA (α:β:γ 1:1:10)
T9 sequence (P62813 28-455 L290T/V306W): as the sequence (P62813 28-455 L290T/L303A) above, with A276L, V279W counted along it
T9 sequence (P63138 25-474 limits assumed, stated change not applied): as the sequence (P63138 25-474 limits assumed, stated change not applied) above
T9 sequence (P18508 with tags, fused parts or gaps INS375LLRMFSFK): as the sequence (P18508 with tags, fused parts or gaps INS375LLRMFSFK) above
In kind it is cell-based.
From the text: as §5, §3, §4, §6

The target of test [10] is T10, α1V279Aβ2γ2L (V279A) receptors (Rattus norvegicus, UniProt P18508+P62813+P63138, INS375LLRMFSFK/V306A).
T10 construct: expressed in transfected cells; host or cells: Xenopus laevis oocytes injected with mRNA (α:β:γ 1:1:10)
T10 sequence (P62813 28-455 V306A): as the sequence (P62813 28-455 L290T/L303A) above, with T263L, A276L, V279A counted along it
T10 sequence (P63138 25-474 limits assumed, stated change not applied): as the sequence (P63138 25-474 limits assumed, stated change not applied) above
T10 sequence (P18508 with tags, fused parts or gaps INS375LLRMFSFK): as the sequence (P18508 with tags, fused parts or gaps INS375LLRMFSFK) above
In words: Two-electrode voltage clamp of receptors expressed in Xenopus laevis oocytes (V279A). In kind it is cell-based.
From the text: as §3, §4, §6

Test [11] addresses α1L9'Tβ2γ2L, α1L9'T/V279Aβ2γ2L, and α1β2γ2L receptors. In words: MWC model of channel gating, global fit to estimated open probability. Particulars: MWC model parameter, global optimisation.
For test [12], the target named is T11, α1β2γ2L (wild-type) GABAA receptors (Rattus norvegicus, UniProt P18508+P62813+P63138, INS375LLRMFSFK).
T11 construct: expressed in transfected cells; host or cells: Xenopus laevis oocytes injected with mRNA (α:β:γ 1:1:10)
T11 sequence (P62813 28-455, stated change not applied): as the sequence (P62813 28-455 L290T/L303A) above, with T263L, A276L counted along it
T11 sequence (P63138 25-474 limits assumed, stated change not applied): as the sequence (P63138 25-474 limits assumed, stated change not applied) above
T11 sequence (P18508 with tags, fused parts or gaps INS375LLRMFSFK): as the sequence (P18508 with tags, fused parts or gaps INS375LLRMFSFK) above
In words: Two-electrode voltage clamp of receptors expressed in Xenopus laevis oocytes (wild-type). Type of test: cell-based. The conditions noted are these: WT; 10 μM GABA + 1 μM FG-7142.
From the text: as §3
Currents from expressed channels 1–3 days post-injection were recorded in two-electrode voltage clamp (Dagan TEV-200, HEKA ITC and Patchmaster software). […] PTX was diluted from a 1 M stock solution in DMSO. […] Recorded currents were analyzed with custom scripts in MATLAB (Mathworks). Recordings of concentration–response relationships were bookended by pulses of PTX to correct for any drift or rundown during the experiment. […]
On the technique in general: Two-electrode voltage clamp holds a large cell at a set potential and records current.

T7 sequence (P62813 28-455 L290T): as the sequence (P62813 28-455 L290T/L303A) above, with A276L counted along it
T7 sequence (P63138 25-474 limits assumed, stated change not applied): as the sequence (P63138 25-474 limits assumed, stated change not applied) above
T7 sequence (P18508 with tags, fused parts or gaps INS375LLRMFSFK): as the sequence (P18508 with tags, fused parts or gaps INS375LLRMFSFK) above
T8 sequence (P62813 28-455 L290T/V306D): as the sequence (P62813 28-455 L290T/L303A) above, with A276L, V279D counted along it
T8 sequence (P63138 25-474 limits assumed, stated change not applied): as the sequence (P63138 25-474 limits assumed, stated change not applied) above
T8 sequence (P18508 with tags, fused parts or gaps INS375LLRMFSFK): as the sequence (P18508 with tags, fused parts or gaps INS375LLRMFSFK) above
T1 sequence (P62813 28-455 L290T/K305A): as the sequence (P62813 28-455 L290T/L303A) above, with A276L, K278A counted along it
T1 sequence (P63138 25-474 limits assumed, stated change not applied): as the sequence (P63138 25-474 limits assumed, stated change not applied) above
T1 sequence (P18508 with tags, fused parts or gaps INS375LLRMFSFK): as the sequence (P18508 with tags, fused parts or gaps INS375LLRMFSFK) above
T4 sequence (P62813 28-455 L290T/T310A): as the sequence (P62813 28-455 L290T/L303A) above, with A276L, T283A counted along it
T4 sequence (P63138 25-474 limits assumed, stated change not applied): as the sequence (P63138 25-474 limits assumed, stated change not applied) above
T4 sequence (P18508 with tags, fused parts or gaps INS375LLRMFSFK): as the sequence (P18508 with tags, fused parts or gaps INS375LLRMFSFK) above
T5 sequence (P62813 28-455 L290T/V306A): as the sequence (P62813 28-455 L290T/L303A) above, with A276L, V279A counted along it
T5 sequence (P63138 25-474 limits assumed, stated change not applied): as the sequence (P63138 25-474 limits assumed, stated change not applied) above
T5 sequence (P18508 with tags, fused parts or gaps INS375LLRMFSFK): as the sequence (P18508 with tags, fused parts or gaps INS375LLRMFSFK) above

For the molecule `CN1C(=O)CN=C(c2ccccc2)c2cc(Cl)ccc21` [DZ, diazepam], the DZ hill slope in test [1] came out at 0.97; in test [2] it was 0.61; in [3], 1.24; in test [4] it was 1.42; in test [5], 0.98; in test [6] it was 1.14. The DZ hill slope came to 1.10 in test [7], 0.58 in [8] and 0.90 in test [9]. The “ΔΔGDZ (DZ's energetic contribution to pore gating, ΔG1 − ΔG0)” value in test [1] is given as −0.44 ± 0.08 (4) kcal/mol; in test [2], −0.45 ± 0.04 (5) kcal/mol; in [3] it was −0.46 ± 0.20 (5) kcal/mol; in test [4] it was −0.38 ± 0.04 (6) kcal/mol; in test [5] it was −1.11 ± 0.30 (5) kcal/mol; in test [6], −0.42 ± 0.07 (4) kcal/mol. For the same molecule, the “ΔΔGDZ (DZ's energetic contribution to pore gating, ΔG1 − ΔG0)” value is −0.31 ± 0.04 (5) kcal/mol in [7], −0.52 ± 0.02 (3) kcal/mol in [8] and −0.53 ± 0.10 (3) kcal/mol in test [9]. In [5], the “dV279A (factor by which DZ binding influences channel opening)” value was 0.20. The “DZ potentiation of GABA-evoked peak current responses” value in [10] (V279A vs wild-type, 1 μM DZ, EC20-25 (30 μM) or EC100 GABA) was “to a greater extent in V279A than in wild-type receptors”. In addition, the “DZ potentiation of currents evoked with a saturating concentration of GABA” value in test [10] (V279A, 1 μM DZ, EC100 GABA 3–30 mM) is reported as “potentiates V279A currents evoked with a saturating concentration of GABA”. For the same molecule, the Kd in test [11] (read-out: KD (dissociation constant for DZ)) is 180 nM.

As to `CNC(=O)c1cc2c(cn1)[nH]c1ccccc12` [FG-7142], the “Effect of FG-7142 on responses to ~EC20-25 GABA” value in test [12] is “reduced”; in test [10] (V279A, 30 μM GABA + 1 μM FG-7142, compared with WT), “to a slightly lesser extent in V279A”.

`NCCCC(=O)O` [GABA]: the “c (factor by which GABA binding influences channel opening)” value in test [11] is reported as 0.0031.

Regarding picrotoxin [PTX], the “IPTX /IGABA-max (ratio of PTX-sensitive to maximal GABA-evoked current amplitude)” value in test [1] (L9'T/K278A, 1 mM PTX, saturating GABA, mean ± SD) is recorded as 0.20 ± 0.06 (5); in [2] (L9'T/L276A, 1 mM PTX, saturating GABA, mean ± SD), 0.22 ± 0.09 (4); in [3] (L9'T/P277A, 1 mM PTX, saturating GABA, mean ± SD) it was 0.45 ± 0.03 (3); in [4] (L9'T/T283A, 1 mM PTX, saturating GABA, mean ± SD), 0.11 ± 0.03 (5); in [5] (L9'T/V279A, 1 mM PTX, saturating GABA, mean ± SD), 0.17 ± 0.04 (4); in [6] (L9'T/Y281A, 1 mM PTX, saturating GABA, mean ± SD) it was 0.25 ± 0.07 (5). The “IPTX /IGABA-max (ratio of PTX-sensitive to maximal GABA-evoked current amplitude)” value is on record as 0.36 ± 0.04 (5) in [7] (L9'T, 1 mM PTX, saturating GABA, mean ± SD (# oocytes)); 0.02 ± 0.005 (3) in test [8] (L9'T/V279D, 1 mM PTX, saturating GABA, mean ± SD); 0.16 ± 0.05 (2) in test [9] (L9'T/V279W, 1 mM PTX, saturating GABA, mean ± SD).

By Kd is commonly meant the concentration at which binding is half-saturated.
